Test results published in patent US10000535B2, “Template-fixed peptidomimetics” (POLYPHOR LTD., priority 2007, dated 2018).
Non-standard residues stand in square brackets, D forms with d. Residues, ends and D or L forms follow the SMILES beside them. Aze = O=C(O)[C@@H]1CCN1

Experiments:
Experiment in all cases: Selectivity calcium flux assay, chemokine receptor panel
Assay type in all cases: cell-based
Conditions in all cases: at 10 μM
[1] = target: T1, CCR9 (Homo sapiens, UniProt P51686)
T1 sequence (P51686 1-369): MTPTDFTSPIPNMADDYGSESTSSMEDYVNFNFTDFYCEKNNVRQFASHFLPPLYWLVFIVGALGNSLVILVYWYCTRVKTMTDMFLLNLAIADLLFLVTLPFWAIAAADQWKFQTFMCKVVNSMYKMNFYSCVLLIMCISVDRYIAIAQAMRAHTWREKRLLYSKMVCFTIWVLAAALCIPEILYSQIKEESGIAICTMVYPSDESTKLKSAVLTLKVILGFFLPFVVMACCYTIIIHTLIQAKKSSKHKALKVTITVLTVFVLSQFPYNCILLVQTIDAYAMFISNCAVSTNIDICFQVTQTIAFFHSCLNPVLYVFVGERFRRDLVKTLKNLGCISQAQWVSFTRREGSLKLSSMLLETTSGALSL
Method: (§1) Selectivity was measured using the calcium flux assay on a panel of human chemokine receptor bearing cell lines (CCR1, CCR2, CCR3, CCR4, CCR5, CCR6, CCR7, CCR8, CCR9, CCR10, CXCR1, CXCR2, CXCR2, CXCR4, CXCR6 and CXCCR1) using the same method as above

[2] = target: T2, CCR7 (Homo sapiens, UniProt P32248)
T2 sequence (P32248 25-378): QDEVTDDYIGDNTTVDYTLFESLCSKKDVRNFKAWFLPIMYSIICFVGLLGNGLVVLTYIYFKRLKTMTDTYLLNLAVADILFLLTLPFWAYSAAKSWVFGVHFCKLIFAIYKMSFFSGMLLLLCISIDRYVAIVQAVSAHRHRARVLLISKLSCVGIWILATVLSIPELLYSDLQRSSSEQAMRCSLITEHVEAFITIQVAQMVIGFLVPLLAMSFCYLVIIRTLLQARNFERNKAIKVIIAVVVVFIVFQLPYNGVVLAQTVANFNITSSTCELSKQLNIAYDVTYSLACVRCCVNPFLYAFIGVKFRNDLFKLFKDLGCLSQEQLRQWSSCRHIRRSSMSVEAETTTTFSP
Method: as §1

[3] = target: T3, CCR4 (Homo sapiens, UniProt P51679)
T3 sequence (P51679 1-360): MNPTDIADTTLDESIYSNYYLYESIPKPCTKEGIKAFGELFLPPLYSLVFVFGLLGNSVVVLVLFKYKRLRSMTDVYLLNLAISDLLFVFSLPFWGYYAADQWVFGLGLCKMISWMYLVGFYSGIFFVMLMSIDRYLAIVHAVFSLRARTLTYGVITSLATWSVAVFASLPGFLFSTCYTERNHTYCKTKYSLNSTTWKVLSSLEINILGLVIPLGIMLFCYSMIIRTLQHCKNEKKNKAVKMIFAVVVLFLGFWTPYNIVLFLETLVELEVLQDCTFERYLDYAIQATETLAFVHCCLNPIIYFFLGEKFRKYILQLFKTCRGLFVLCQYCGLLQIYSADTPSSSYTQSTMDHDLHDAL
Method: as §1

[4] = target: T4, CCR1 (Homo sapiens, UniProt P32246)
T4 sequence (P32246 1-355): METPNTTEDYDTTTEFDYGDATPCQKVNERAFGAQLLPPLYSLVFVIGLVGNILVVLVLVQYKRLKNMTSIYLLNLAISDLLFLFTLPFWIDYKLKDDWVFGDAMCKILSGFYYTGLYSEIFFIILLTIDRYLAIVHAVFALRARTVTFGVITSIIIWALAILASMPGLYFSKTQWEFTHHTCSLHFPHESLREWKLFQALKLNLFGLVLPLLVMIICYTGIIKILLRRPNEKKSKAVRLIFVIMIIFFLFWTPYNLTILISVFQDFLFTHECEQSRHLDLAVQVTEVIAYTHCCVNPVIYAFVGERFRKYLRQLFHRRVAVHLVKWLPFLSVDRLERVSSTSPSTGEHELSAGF
Method: as §1

[5] = target: T5, CCR3 (Homo sapiens, UniProt P51677)
T5 sequence (P51677 1-355): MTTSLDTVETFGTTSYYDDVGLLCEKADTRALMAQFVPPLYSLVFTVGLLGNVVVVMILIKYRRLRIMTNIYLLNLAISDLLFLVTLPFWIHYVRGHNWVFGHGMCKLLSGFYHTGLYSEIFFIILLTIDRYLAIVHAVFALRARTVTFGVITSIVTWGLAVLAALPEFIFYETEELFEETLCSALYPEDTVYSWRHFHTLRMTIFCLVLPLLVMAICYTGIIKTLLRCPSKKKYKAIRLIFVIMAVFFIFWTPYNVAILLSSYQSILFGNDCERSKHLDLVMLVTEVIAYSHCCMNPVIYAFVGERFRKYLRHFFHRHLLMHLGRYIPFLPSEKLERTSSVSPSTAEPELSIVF
Method: as §1

[6] = target: CXCR4 chemokine receptor (Homo sapiens, UniProt P61073)
Chain of CXCR4 chemokine receptor (P61073 whole entry): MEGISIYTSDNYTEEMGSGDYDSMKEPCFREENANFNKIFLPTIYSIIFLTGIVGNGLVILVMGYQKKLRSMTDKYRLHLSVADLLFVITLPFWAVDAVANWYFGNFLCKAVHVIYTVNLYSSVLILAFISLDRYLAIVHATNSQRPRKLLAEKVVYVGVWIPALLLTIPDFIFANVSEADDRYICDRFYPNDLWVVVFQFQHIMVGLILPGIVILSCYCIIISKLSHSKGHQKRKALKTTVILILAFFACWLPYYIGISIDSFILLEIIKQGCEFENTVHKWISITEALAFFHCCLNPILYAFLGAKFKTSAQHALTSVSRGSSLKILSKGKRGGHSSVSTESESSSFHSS
Method: as §1

[7] = target: CCR5 (Homo sapiens, UniProt P51681)
Chain of CCR5 (P51681 whole entry): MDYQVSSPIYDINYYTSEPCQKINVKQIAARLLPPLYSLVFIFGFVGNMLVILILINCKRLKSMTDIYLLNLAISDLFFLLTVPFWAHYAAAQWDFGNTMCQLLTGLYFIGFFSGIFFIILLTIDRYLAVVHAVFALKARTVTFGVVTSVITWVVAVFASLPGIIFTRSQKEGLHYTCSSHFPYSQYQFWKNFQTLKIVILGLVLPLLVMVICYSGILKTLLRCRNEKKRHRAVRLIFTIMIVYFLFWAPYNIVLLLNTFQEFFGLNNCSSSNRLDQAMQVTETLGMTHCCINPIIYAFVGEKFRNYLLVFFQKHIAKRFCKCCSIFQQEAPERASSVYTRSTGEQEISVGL
Method: as §1

[8] = target: CXCR6 (Homo sapiens, UniProt O00574)
Chain of CXCR6 (O00574 whole entry): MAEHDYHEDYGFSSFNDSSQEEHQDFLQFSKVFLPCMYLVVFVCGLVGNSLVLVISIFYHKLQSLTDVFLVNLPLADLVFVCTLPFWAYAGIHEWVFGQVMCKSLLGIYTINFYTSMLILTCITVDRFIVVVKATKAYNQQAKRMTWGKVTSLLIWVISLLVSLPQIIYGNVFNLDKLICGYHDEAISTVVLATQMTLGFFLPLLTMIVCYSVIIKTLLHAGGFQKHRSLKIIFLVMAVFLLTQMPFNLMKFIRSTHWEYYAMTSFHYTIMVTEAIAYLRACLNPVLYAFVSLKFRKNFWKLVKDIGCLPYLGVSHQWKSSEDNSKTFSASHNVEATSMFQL
Method: as §1

[9] = target: CCR8 (Homo sapiens, UniProt P51685)
Chain of CCR8 (P51685 whole entry): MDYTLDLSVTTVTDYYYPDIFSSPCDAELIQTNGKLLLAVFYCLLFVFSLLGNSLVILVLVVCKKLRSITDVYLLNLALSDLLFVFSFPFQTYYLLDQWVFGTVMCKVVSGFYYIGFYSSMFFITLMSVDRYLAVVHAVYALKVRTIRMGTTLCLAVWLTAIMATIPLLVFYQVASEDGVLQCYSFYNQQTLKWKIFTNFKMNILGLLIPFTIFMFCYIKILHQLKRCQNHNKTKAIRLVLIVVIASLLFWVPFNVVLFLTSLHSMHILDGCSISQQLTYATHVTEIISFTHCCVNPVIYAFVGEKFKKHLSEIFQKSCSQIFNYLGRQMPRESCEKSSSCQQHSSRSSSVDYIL
Method: as §1

[10] = target: T6, CXCR2 (Homo sapiens, UniProt P25025)
T6 sequence (P25025 1-360): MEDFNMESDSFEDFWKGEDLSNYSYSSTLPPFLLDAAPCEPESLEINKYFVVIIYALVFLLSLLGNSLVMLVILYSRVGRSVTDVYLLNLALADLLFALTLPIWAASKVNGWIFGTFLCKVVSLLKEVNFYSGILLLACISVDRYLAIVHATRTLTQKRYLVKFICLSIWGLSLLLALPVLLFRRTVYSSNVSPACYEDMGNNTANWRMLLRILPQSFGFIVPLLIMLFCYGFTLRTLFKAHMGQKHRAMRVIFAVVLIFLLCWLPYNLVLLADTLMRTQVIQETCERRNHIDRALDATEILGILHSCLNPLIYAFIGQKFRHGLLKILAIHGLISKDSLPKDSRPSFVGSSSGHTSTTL
Method: as §1

N=C(N)NCCC[C@@H]1NC(=O)[C@H](Cc2c[nH]c3ccccc23)NC(=O)[C@H](Cc2ccc(O)cc2)NC(=O)[C@@H]2CCN2C(=O)[C@H]2CCCN2C(=O)CNC1=O [Example 15] (cyclo(YWRG[dP][Aze]))
highly selective: selectivity against CCR9 [1] | selectivity against CCR7 [2] | selectivity against CCR4 [3] | selectivity against CCR1 [4] | selectivity against CCR3 [5] | selectivity against CXCR4 chemokine receptor [6] | selectivity against CCR5 [7] | selectivity against CXCR6 [8] | selectivity against CCR8 [9] | selectivity against CXCR2 [10]

C[C@@H]1NC(=O)[C@H](CCCNC(=N)N)NC(=O)[C@H](Cc2c[nH]c3ccccc23)NC(=O)[C@H](Cc2ccc(O)cc2)NC(=O)[C@@H]2CCN2C(=O)[C@H]2CCCN2C1=O [Example 16] (cyclo(YWRA[dP][Aze]))
highly selective: selectivity against CCR9 [1] | selectivity against CCR7 [2] | selectivity against CCR4 [3] | selectivity against CCR1 [4] | selectivity against CCR3 [5] | selectivity against CXCR4 chemokine receptor [6] | selectivity against CCR5 [7] | selectivity against CXCR6 [8] | selectivity against CCR8 [9] | selectivity against CXCR2 [10]
